Measured values: patent US20260108588A1, “A COMPLEX COMPRISING A ALPHA-LACTALBUMIN AND A FATTY ACID OR LIPID FOR USE IN THE TREATMENT OR PREVENTION OF CANCER” (LINNANE PHARMA AB, priority 2022, published 2026)

Columns and labels:
[1] = Giant unilamellar vesicle experiments, membrane response; settings: 21 μM BAMLET, one hour
Protocol: Giant unilamellar vesicles (GUVs) were formed by hydrogel-assisted swelling according to established protocols^29,30, with modifications previously described^31. Briefly, glass cover slips were sonicated in 1 M NaOH solution (30 minutes), rinsed in Milli-Q water (three times) and further sonicated (30 minutes). Coverslips were plasma etched (1 min) using a BD-20 laboratory corona treater (Electro Technic Products Inc.) to render the surface clean and hydrophilic. A thin film of 1% (w/v) solution of molten ultra-low gelling temperature type IX-A agarose (Sigma) was deposited on the coverslip to provide a reaction bed for GUV formation. The cover slips were placed in AttoFluor® cell chambers (ThermoFisher Scientific). Following, 25 μl of egg phosphatidylcholine (#840051P—Avanti Polar Lipids) in chloroform (25 mg/ml) doped with 4% v/v rhodamine C (1 mg/ml, Sigma) were deposited onto the gelled agarose surface, and the solvent evaporated with nitrogen gas. The lipid-hydrogel film was rehydrated with 200 mM sucrose in PBS, pH 7.2 for one hour and then transferred into 200 mM glucose in PBS, pH 7.2 for sedimentation. GUVs were allowed to settle overnight before seeded on the coverslips for visualization after treatment with 21 μM BAMLET for one hour.

[2] = test system: DLD1 colorectal carcinoma cells; experiment: Live cell imaging assay, cellular uptake of labelled BAMLET; format: cell-based, human; settings: 21 μM, one hour
Protocol: To visualize the cellular uptake of BAMLET, cells were seeded on 6-well ibidi chambers (3.5×10^4 cells/well) overnight and then treated with Janelia Fluor-549 labeled (TOCRIS, Cat #6147) BAMLET mixed with unlabelled BAMLET (21 μM) for one hour at 37° C. The nuclei were counterstained for five minutes with DAPI (Abcam Cat #ab228549, 1:1,000) and uptake of labelled BAMLET was captured with the LSM 900 laser scanning confocal microscope with oil immersion ×63 objectives (Carl Zeiss).

[3] = test system: VEGF, Ki67, Cyclin D1 and β-catenin; experiment: Immunohistochemistry of intestinal sections for tumor markers; format: in vivo, mice; settings: vs sham
Description: Swiss rolls of longitudinally opened intestinal segments were fixed overnight in 10% neutral buffered formalin. Samples were embedded in paraffin and 5 μm thick sections were further processed for histology and immunohistochemistry using antibodies for bovine alpha-Lactalbumin (ThermoFisher Scientific, Cat #A10-128A), β-catenin (CellSignaling, Cat #9562), Cyclin D1 (ThermoFisher Scientific, Cat #SC8396), Ki-67 (BD Biosciences, Cat #556003), VEGF (Abcam, Cat #ab46154), PD-1 (Abcam, Cat #ab214421) and TTF-1 (Abcam, Cat #ab227652) as previously described^28 with slight modifications. Citrate buffer (Dako Target Retrieval Solution, Agilent, Cat #S1699) was used for antigen retrieval for Cyclin D1, Ki-67, VEGF, bovine alpha-Lactalbumin and β-catenin staining. EDTA buffer (Abcam, Cat #ab64216) was used for antigen retrieval for TTF-1 staining. Immunohistochemistry was quantified by ImageJ. For Hematoxylin-Eosin (H&E) staining, Hematoxylin (ThermoFisher Scientific, Cat #7211) was used followed by Eosin-Y (ThermoFisher Scientific, Cat #7111) for counterstaining. Images were captured using the AX10 microscope or the Hamamatzu Nanozoomer scanner (Carl Zeiss) and the DAB-positive beta-catenin antibody fields (4-10) for each organ cross-sections were quantified by ImageJ.

DLD1 cells = experiment: Cell death assays (Prestoblue and ATPlite); format: cell-based, human; settings: 7, 21 and 35 μM; Prestoblue and ATPlite
Protocol: Two assays were used as an indirect measure of cell death. Luminescence-based ATPlite™ kit (Perkin Elmer) as well as the Prestoblue assay (ThermoFisher Scientific). Cells (5×10^4 cells/well) were seeded in serum-free RPMI-1640 on 96-well plates and treated with BAMLET and alpha1-oleate at different concentration (7, 21, and 35 μM) and incubated for one hour. Afterward, FCS was added at concentration of 5% and the cells were continuously incubated for two hours at 37° C., at the end of which the two kits were used according to manufactures' instructions. Luminescence and fluorescence were measured using a microplate reader (Infinite F200, Tecan). The experiments were performed in triplicate and repeated twice.

[4] = test system: DLD1 colorectal adenocarcinoma cells; experiment: TUNEL assay; format: cell-based, human; settings: 7 μM, 21 μM and 35 μM, one hour
Protocol: DNA fragmentation was detected using the terminal deoxynucleotidyl transferase dUTP nick end-labeling (TUNEL) assay (Click-IT TUNEL Alexa Fluor 488 imaging assay kit, ThermoFisher Scientific, #C10245). DLD1 cells were seeded in 8-well chamber slide (2×10^4 cells/well) cultured overnight (37° C., 5% CO2) and incubated with BAMLET 7 μM, 21 μM and 35 μM for one hour in serum-free RPMI-1640 at 37° C. Cells were fixed (2% PFA, 15 minutes), permeabilized (0.25% Triton X-100 in PBS, 20 minutes) and incubated with TUNEL reaction mixture containing TdT for 60 minutes at 37° C. After the TUNEL reaction, cells were incubated with Click-iT reaction mixture for 30 minutes. Cells were counterstained with Hoechst 33342 (1:1000, 15 minutes, ThermoFisher Scientifi, Cat #62249), mounted in Fluoromount aqueous mounting media (Sigma, Cat #4680), and examined by LSM 900 confocal microscopy (Carl Zeiss). Fluorescence intensities were quantified by ImageJ.

[5] = test system: Wnt/β-catenin signaling pathway; experiment: Gene expression analysis of lungs, livers and kidneys of Apc^Min/+ mice; format: in vivo; settings: BAMLET treated compared to sham treated Apc^Min/+ mice
[6] = test system: intestine of healthy C57BL/6 mice; experiment: Real-time in vivo fluorescence imaging of BAMLET in healthy mice; settings: oral gavage

## BAMLET
[1]
  membrane response: triggered rapid blebbing, tubulation and eventual vesicle division
[2]
  uptake of labelled BAMLET: rapidly internalized into the cytoplasm and nuclei
[3]; intestinal sections, five weeks post gavage and eight weeks drinking water
  expression of tumor markers VEGF, Ki67, Cyclin D1 and β-catenin: less strongly expressed
[3]; long-term BAMLET in drinking water
  β-catenin staining of intestinal sections: markedly reduced
DLD1 cells
  cell viability: rapid dose-dependent reduction
[4]
  TUNEL staining (DNA strand breaks): Dose-dependent increase
[5]
  Wnt/β-catenin signaling pathway in lungs, livers and kidneys (gene expression): down-regulated
[6]
  BAMLET retention in the intestines of healthy mice: lack of BAMLET retention
